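A five-concentration, 48-hour dose response in 96-well plates underlies each endpoint, interpolated linearly between surrounding concentrations. At the GI50, growth is halved.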 Active and inactive are the calls of the source. No stated cut-off is given here; in the data, active = GI50 up to about 1.1 µM and inactive = higher.
Columns and labels:
Assay in all cases: NCI tumour cell line growth inhibition, 48 h
CCRF-CEM = tested on: CCRF-CEM
U-251 = tested on: U-251
IGROV-1 = tested on: IGROV-1
OVCAR-4 = tested on: OVCAR-4
SF-539 = tested on: SF-539
OVCAR-3 = tested on: OVCAR-3
SK-MEL-28 = tested on: SK-MEL-28
MDA-MB-231 = tested on: MDA-MB-231
TK-10 = tested on: TK-10
A498 = tested on: A498
MOLT-4 = tested on: MOLT-4
OVCAR-5 = tested on: OVCAR-5
HOP-92 = tested on: HOP-92
T47D = tested on: T47D
NCI-H226 = tested on: NCI-H226
UO-31 = tested on: UO-31
A549 = tested on: A549
SNB-19 = tested on: SNB-19
COLO 205 = tested on: COLO 205
UACC-257 = tested on: UACC-257

Measured: GI50

COc1c(C)c(C/C=C(\C)CCCCO[Si](c2ccccc2)(c2ccccc2)C(C)(C)C)c(OC)c(OC)c1OC
inactive: CCRF-CEM > 46.5 µM | U-251 > 46.5 µM | IGROV-1 24.9 µM | OVCAR-4 28.1 µM | SF-539 > 46.5 µM | OVCAR-3 > 46.5 µM | SK-MEL-28 > 100 µM | MDA-MB-231 > 100 µM | TK-10 > 31.6 µM | A498 > 100 µM | MOLT-4 > 46.5 µM | OVCAR-5 > 46.5 µM | HOP-92 > 31.6 µM | T47D > 83.9 µM | NCI-H226 > 100 µM | UO-31 9.27 µM | A549 21.4 µM | SNB-19 > 46.5 µM | COLO 205 20.6 µM | UACC-257 > 46.5 µM

N#CC1=C(N)N(/N=C/c2ccccc2)C(c2ccccc2)C1(C#N)C#N (stereo not given)
inactive: CCRF-CEM 1.9 µM | U-251 17.7 µM | IGROV-1 13.7 µM | OVCAR-4 14.9 µM | SF-539 16.5 µM | OVCAR-3 4.89 µM | SK-MEL-28 4.79 µM | MDA-MB-231 17 µM | TK-10 6.3 µM | A498 15.9 µM | MOLT-4 2.23 µM | OVCAR-5 18.7 µM | HOP-92 2.98 µM | T47D 6.87 µM | NCI-H226 18.6 µM | UO-31 15.7 µM | A549 18.7 µM | SNB-19 23.1 µM | COLO 205 2.19 µM | UACC-257 9.38 µM

ClCCCCCc1c2nc(c(CCCCCCl)c3ccc([nH]3)c(CCCCCCl)c3nc(c(CCCCCCl)c4ccc1[nH]4)C=C3)C=C2
inactive: CCRF-CEM > 100 µM | U-251 > 100 µM | IGROV-1 > 100 µM | OVCAR-4 > 100 µM | SF-539 > 100 µM | OVCAR-3 > 100 µM | SK-MEL-28 > 100 µM | MDA-MB-231 > 100 µM | TK-10 > 100 µM | A498 > 100 µM | MOLT-4 > 100 µM | OVCAR-5 > 100 µM | HOP-92 > 100 µM | T47D > 100 µM | NCI-H226 > 100 µM | UO-31 > 100 µM | A549 > 100 µM | SNB-19 > 100 µM | COLO 205 > 100 µM | UACC-257 > 100 µM

CC(C)Cn1cnc2c(Sc3c([N+](=O)[O-])ncn3C)nc(N)nc21
inactive: CCRF-CEM 38.6 µM | U-251 > 87.1 µM | IGROV-1 > 47.5 µM | OVCAR-4 23.6 µM | SF-539 > 23.7 µM | OVCAR-3 > 35 µM | SK-MEL-28 > 60.7 µM | MDA-MB-231 64.4 µM | TK-10 > 41.1 µM | A498 > 100 µM | MOLT-4 > 42.2 µM | OVCAR-5 > 100 µM | HOP-92 14.9 µM | T47D 30.4 µM | NCI-H226 > 100 µM | UO-31 > 38 µM | A549 > 67.9 µM | SNB-19 > 100 µM | COLO 205 > 25.6 µM | UACC-257 > 49.3 µM

CC(=O)O[C@H]1CC[C@H]2[C@@H]3CCC4C(C)=NNC(=O)C4[C@H]3CC[C@]12C (stereo not given in full)
inactive: CCRF-CEM > 100 µM | U-251 36.5 µM | IGROV-1 27 µM | OVCAR-4 > 100 µM | SF-539 65.9 µM | OVCAR-3 > 100 µM | SK-MEL-28 > 100 µM | MDA-MB-231 33.3 µM | TK-10 > 76.6 µM | A498 37.2 µM | MOLT-4 > 100 µM | OVCAR-5 > 100 µM | HOP-92 37.9 µM | T47D > 100 µM | NCI-H226 39.5 µM | UO-31 > 100 µM | A549 > 100 µM | SNB-19 33.5 µM | COLO 205 > 100 µM | UACC-257 > 100 µM

Cc1cc(CS(=O)(=O)/C=C/c2ccccc2[N+](=O)[O-])c(CS(=O)(=O)/C=C/c2ccccc2[N+](=O)[O-])cc1C
inactive: CCRF-CEM 21.5 µM | U-251 19.6 µM | IGROV-1 30.8 µM | OVCAR-4 7.98 µM | SF-539 14.4 µM | OVCAR-3 49.1 µM | SK-MEL-28 68.7 µM | MDA-MB-231 16.4 µM | TK-10 35.4 µM | A498 26.5 µM | MOLT-4 70.1 µM | OVCAR-5 > 57.1 µM | HOP-92 33.2 µM | T47D > 100 µM | NCI-H226 19 µM | UO-31 > 82 µM | A549 57.7 µM | SNB-19 28.1 µM | COLO 205 > 100 µM | UACC-257 > 65 µM

Cc1c(O)c(OC2OC(CO)C(O)C(O)C2O)cc2c1CC[C@@H]1C2(C)C(=O)C[C@]2(C)[C@@H]([C@@](C)(O)C3CCC(C)(C)O3)[C@H](O)C[C@@]12C (stereo not given in full)
inactive: CCRF-CEM > 100 µM | U-251 > 100 µM | IGROV-1 > 100 µM | OVCAR-4 > 100 µM | SF-539 > 100 µM | OVCAR-3 > 100 µM | SK-MEL-28 > 100 µM | MDA-MB-231 > 100 µM | TK-10 > 100 µM | A498 > 100 µM | MOLT-4 > 100 µM | OVCAR-5 > 100 µM | HOP-92 > 100 µM | T47D > 100 µM | NCI-H226 > 100 µM | UO-31 > 100 µM | A549 > 100 µM | SNB-19 > 100 µM | COLO 205 > 100 µM | UACC-257 > 100 µM

From ChEMBL document CHEMBL1201862, “PubChem BioAssay data set” (2004)
